{"source": "BindingDB's records for PubMed 36346645", "about": "(University of Copenhagen, 2022)", "molecular_target": "Calcium/calmodulin-dependent protein kinase type II subunit alpha (Rattus norvegicus, UniProt P11275)", "sequence (P11275 whole entry)": "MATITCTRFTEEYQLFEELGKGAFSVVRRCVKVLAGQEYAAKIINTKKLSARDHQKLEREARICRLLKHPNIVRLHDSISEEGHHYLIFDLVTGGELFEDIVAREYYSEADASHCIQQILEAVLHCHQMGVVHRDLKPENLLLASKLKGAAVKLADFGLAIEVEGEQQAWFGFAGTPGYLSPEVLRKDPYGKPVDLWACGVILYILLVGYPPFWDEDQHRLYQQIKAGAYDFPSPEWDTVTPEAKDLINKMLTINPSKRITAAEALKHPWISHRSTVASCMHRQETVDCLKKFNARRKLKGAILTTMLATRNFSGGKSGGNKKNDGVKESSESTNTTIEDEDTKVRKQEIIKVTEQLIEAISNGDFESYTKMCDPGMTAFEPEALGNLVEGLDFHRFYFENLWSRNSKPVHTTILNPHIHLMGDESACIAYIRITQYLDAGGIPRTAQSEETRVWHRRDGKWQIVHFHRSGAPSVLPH", "assay": "Displacement of [3H]NCS-382 from CaMK2alpha in rat brain cortical membrane homogenates measured after 1 hr by TopCount scintillation counting method", "data": [{"smiles": "O=C(O)/C=C1\\CCCc2cc(I)ccc2C1O", "note": "(stereo unspecified)", "values": [{"measurement": "Ki", "value": 50, "unit": "nM"}]}]}
